{
  "source": "paper PMC3497310",
  "about": "“Binding of the Phage Display Derived Peptide CaIX-P1 on Human Colorectal Carcinoma Cells Correlates with the Expression of Carbonic Anhydrase IX” (International Journal of Molecular Sciences, 2012)",
  "key": {"[1]": {"tested_on": "HCT116 cells", "experiment": "Fluorescence microscopy of cell labeling", "type": "cell-based, human", "conditions": "HCT116 cells grown to high density; 1 h at 37 °C; medium without FCS; 100 μL of 10^-4-10^-5 M stock in 1 mL; after fixation", "experimental": "Human colorectal carcinoma HCT116 cells were seeded in culture plates (1,000,000–2,000,000 cells/well in 3 mL medium) containing glass coverslips and were allowed to grow for 48 h. The medium was replaced by 900 μL fresh medium (without FCS) and 100 μL 10^−4–10^−5 M sterilized stock solution of FITC-labeled-CaIX-P1 or fluorescein at the same concentration was added to the cells. The plates were incubated for 1 h at 37 °C. After incubation the cells were washed thrice with 1 mL ice cold PBS (pH 7.4). Subsequently the cells were fixed with 2% formaldehyde in PBS (pH 7.4) at […] for 20 min. This procedure was performed on ice. The cells were washed with ice cold PBS (1 × 600 μL, pH 7.4) and the cover slips were mounted on a slice with DAKO fluorescent medium. Cells were photographed using a Leica DM-RA2 fluorescence microscope. Digitalized figures were processed using standard imaging software (Adobe Photoshop 6.0/Illustrator 9.0)."}, "[2]": {"tested_on": "BxPC3 cells", "experiment": "In vitro binding kinetics of 125I-CaIX-P1 at two cell densities (negative control cells)", "design": "species or system human", "conditions": "300,000 vs 2,000,000 cells cultivated 48 h, incubation 10-120 min, serum free medium", "experimental": "(§1) 300,000 and 2,000,000 human colorectal carcinoma HCT116 and pancreatic carcinoma BxPC3 cells were cultivated in 6-well plates for 48 h. RPMI 1640 medium with 1% BSA was used for cell blocking. Thereafter, 1 mL RPMI 1640 medium containing about 1.0 × 10^6 cpm ^125I-labeled peptide (specific activity ~50 GBq/μmol) was added and cell incubation was carried out for various time periods (10-120 min). To characterize the specificity of radioligand binding, co-incubation with unlabeled CaIX-P1 at various concentrations (10^-4 to 10^-9 mol/L) was performed. After incubation the cells were washed with ice cold PBS and lysed with 0.5 mL NaOH 0.3 mol/L. The lysate was collected and the radioactivity was measured with a γ-counter ([…]; Berthold Technologies). Bound radioactivity, representing the amount of peptide accumulation on HCT116 cells, was calculated as percentage applied dose per 10^6 cells. Binding specificity was further determined using octreotide, HBP-1 and VA131 as negative control competitors at the same concentration as CaIX-P1. All binding and competition experiments were performed in serum free medium in order to avoid peptide degradation by serum proteases."}, "[3]": {"tested_on": "HCT116 cells", "experiment": "In vitro binding kinetics of 125I-CaIX-P1 at two cell densities", "design": "species or system human", "conditions": "300,000 vs 2,000,000 cells cultivated 48 h; incubation 10-120 min; serum free medium; uptake as percent applied dose per 10^6 cells; p < 0.05", "experimental": "as §1"}, "[4]": {"tested_on": "HCT116 cells", "type": "binding, human", "conditions": "48 h", "experimental": "as §1"}, "[5]": {"conditions": "serum stability; rapid degradation by serum proteases; cited from earlier work"}},
  "note": "Where no end group is shown, it is not given here.",
  "data": [
    {"compound": "O=C1OC2(c3ccc(O)cc3Oc3cc(O)ccc32)c2ccccc21", "note": "[fluorescein]", "values": [
      {"measurement": "fluorescence signal of cells", "setting": "[1]", "result": "strongly decreased signal to the background level"}
    ]},
    {"compound": "YNTNHVPLSPKY [^125I-CaIX-P1, CaIX-P1 radiolabeled with 125I using the chloramine T method]", "values": [
      {"measurement": "binding of 125I-CaIX-P1 on BxPC3 cells at different cell densities", "setting": "[2]", "result": "strongly decreased binding to the background level"},
      {"measurement": "binding of 125I-CaIX-P1 per 10^6 HCT116 cells with increasing cell density", "setting": "[3]", "result": "significantly increased binding"}
    ]},
    {"compound": "YNTNHVPLSPKY [CaIX-P1]", "values": [
      {"measurement": "IC50", "setting": "[4]", "result": "1000 to 5000", "unit": "nM"},
      {"measurement": "half-life in serum", "setting": "[5]", "result": "about 25 min"}
    ]}
  ]
}
